From PubChem BioAssay (NCI)
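Interpolation was linear, between the two tested concentrations surrounding the appropriate level; five concentrations were tested over 48 hours in 96-well plates. TGI marks complete inhibition of growth.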

What was measured:
Test in all cases: NCI anticancer screen, dose series, 48 h
IGROV1 ovarian = system: IGROV1 ovarian
PC-3 prostate = system: PC-3 prostate
HCC-2998 colon = system: HCC-2998 colon
OVCAR-5 ovarian = system: OVCAR-5 ovarian
SK-MEL-5 melanoma = system: SK-MEL-5 melanoma
SNB-19 CNS = system: SNB-19 CNS
M14 melanoma = system: M14 melanoma
NCI-H460 lung = system: NCI-H460 lung
U251 CNS = system: U251 CNS
SR leukemia = system: SR leukemia
CAKI-1 renal = system: CAKI-1 renal
RXF 393 renal = system: RXF 393 renal
786-0 renal = system: 786-0 renal
HT29 colon = system: HT29 colon
A549 NSCLC = system: A549 NSCLC
UO-31 renal = system: UO-31 renal
SF-268 CNS = system: SF-268 CNS
MALME-3M melanoma = system: MALME-3M melanoma
OVCAR-3 ovarian = system: OVCAR-3 ovarian
A498 renal = system: A498 renal
MDA-MB-231 breast = system: MDA-MB-231 breast
SK-MEL-28 melanoma = system: SK-MEL-28 melanoma
ACHN renal = system: ACHN renal
HCT-116 colon = system: HCT-116 colon
OVCAR-4 ovarian = system: OVCAR-4 ovarian
KM12 colon = system: KM12 colon
HS 578T breast = system: HS 578T breast
K-562 leukemia = system: K-562 leukemia
SNB-75 CNS = system: SNB-75 CNS
DU-145 prostate = system: DU-145 prostate
CCRF-CEM leukemia = system: CCRF-CEM leukemia
SN12C renal = system: SN12C renal
SF-539 CNS = system: SF-539 CNS
HOP-92 NSCLC = system: HOP-92 NSCLC
MOLT-4 leukemia = system: MOLT-4 leukemia
RPMI-8226 leukemia = system: RPMI-8226 leukemia
NCI/ADR-RES ovarian = system: NCI/ADR-RES ovarian
COLO 205 colon = system: COLO 205 colon
HL-60(TB) leukemia = system: HL-60(TB) leukemia
HOP-62 NSCLC = system: HOP-62 NSCLC
EKVX NSCLC = system: EKVX NSCLC
MCF7 breast = system: MCF7 breast
MDA-MB-435 = system: MDA-MB-435
HCT-15 colon = system: HCT-15 colon
UACC-257 melanoma = system: UACC-257 melanoma
UACC-62 melanoma = system: UACC-62 melanoma
LOX IMVI melanoma = system: LOX IMVI melanoma
T-47D breast = system: T-47D breast
NCI-H23 lung = system: NCI-H23 lung
BT-549 breast = system: BT-549 breast
OVCAR-8 ovarian = system: OVCAR-8 ovarian
NCI-H226 lung = system: NCI-H226 lung
SF-295 CNS = system: SF-295 CNS
NCI-H522 lung = system: NCI-H522 lung
MDA-N = system: MDA-N
TK-10 renal = system: TK-10 renal
SW-620 colon = system: SW-620 colon
SK-OV-3 ovarian = system: SK-OV-3 ovarian
SK-MEL-2 melanoma = system: SK-MEL-2 melanoma

## CC(=O)N/N=C1/NN(C(C)=O)C2(S1)C(=O)Nc1ccc(C)cc12 (centres undefined)
IGROV1 ovarian
  TGI: > 100 µM
PC-3 prostate
  TGI: > 100 µM
HCC-2998 colon
  TGI: > 100 µM
OVCAR-5 ovarian
  TGI: > 100 µM
SK-MEL-5 melanoma
  TGI: > 100 µM
SNB-19 CNS
  TGI: > 100 µM
M14 melanoma
  TGI: > 100 µM
NCI-H460 lung
  TGI: > 100 µM
U251 CNS
  TGI: > 100 µM
SR leukemia
  TGI: > 100 µM
CAKI-1 renal
  TGI: > 100 µM
RXF 393 renal
  TGI: > 100 µM
786-0 renal
  TGI: > 100 µM
HT29 colon
  TGI: > 100 µM
A549 NSCLC
  TGI: > 100 µM
UO-31 renal
  TGI: > 100 µM
SF-268 CNS
  TGI: > 100 µM
MALME-3M melanoma
  TGI: > 100 µM
OVCAR-3 ovarian
  TGI: > 100 µM
A498 renal
  TGI: > 100 µM
MDA-MB-231 breast
  TGI: > 100 µM
SK-MEL-28 melanoma
  TGI: > 100 µM
ACHN renal
  TGI: > 100 µM
HCT-116 colon
  TGI: > 100 µM
OVCAR-4 ovarian
  TGI: > 100 µM
KM12 colon
  TGI: > 100 µM
HS 578T breast
  TGI: > 100 µM
K-562 leukemia
  TGI: > 100 µM
SNB-75 CNS
  TGI: > 100 µM
DU-145 prostate
  TGI: > 100 µM
CCRF-CEM leukemia
  TGI: > 100 µM
SN12C renal
  TGI: > 100 µM
SF-539 CNS
  TGI: > 100 µM
HOP-92 NSCLC
  TGI: > 100 µM
MOLT-4 leukemia
  TGI: > 100 µM
RPMI-8226 leukemia
  TGI: > 100 µM
NCI/ADR-RES ovarian
  TGI: > 100 µM
COLO 205 colon
  TGI: > 100 µM
HL-60(TB) leukemia
  TGI: > 100 µM
HOP-62 NSCLC
  TGI: > 100 µM
EKVX NSCLC
  TGI: > 100 µM
MCF7 breast
  TGI: > 100 µM
MDA-MB-435
  TGI: > 100 µM
HCT-15 colon
  TGI: > 100 µM
UACC-257 melanoma
  TGI: > 100 µM
UACC-62 melanoma
  TGI: > 100 µM
LOX IMVI melanoma
  TGI: > 100 µM
T-47D breast
  TGI: 70.9 µM
NCI-H23 lung
  TGI: > 100 µM
BT-549 breast
  TGI: > 100 µM
OVCAR-8 ovarian
  TGI: > 100 µM
NCI-H226 lung
  TGI: > 100 µM
SF-295 CNS
  TGI: > 100 µM
NCI-H522 lung
  TGI: > 100 µM
MDA-N
  TGI: > 100 µM
TK-10 renal
  TGI: > 100 µM

## COC(=O)C1(Cc2ccccc2)Cc2cc3c(cc2C1)CCC3
IGROV1 ovarian
  TGI: > 100 µM
PC-3 prostate
  TGI: > 100 µM
HCC-2998 colon
  TGI: > 100 µM
OVCAR-5 ovarian
  TGI: 82.6 µM
SK-MEL-5 melanoma
  TGI: 33.7 µM
SNB-19 CNS
  TGI: > 100 µM
M14 melanoma
  TGI: > 100 µM
NCI-H460 lung
  TGI: > 100 µM
U251 CNS
  TGI: 64.9 µM
SR leukemia
  TGI: 31.3 µM
RXF 393 renal
  TGI: 50.7 µM
786-0 renal
  TGI: > 100 µM
HT29 colon
  TGI: 24.6 µM
A549 NSCLC
  TGI: > 100 µM
UO-31 renal
  TGI: > 100 µM
SF-268 CNS
  TGI: > 100 µM
MALME-3M melanoma
  TGI: 52.6 µM
OVCAR-3 ovarian
  TGI: > 100 µM
A498 renal
  TGI: 82.4 µM
MDA-MB-231 breast
  TGI: > 100 µM
SK-MEL-28 melanoma
  TGI: > 100 µM
ACHN renal
  TGI: > 100 µM
HCT-116 colon
  TGI: 76.9 µM
OVCAR-4 ovarian
  TGI: > 100 µM
KM12 colon
  TGI: 76.4 µM
HS 578T breast
  TGI: > 100 µM
K-562 leukemia
  TGI: 41.6 µM
SNB-75 CNS
  TGI: 95.4 µM
DU-145 prostate
  TGI: > 100 µM
CCRF-CEM leukemia
  TGI: 31.6 µM
SN12C renal
  TGI: > 100 µM
SF-539 CNS
  TGI: > 100 µM
SW-620 colon
  TGI: > 100 µM
SK-OV-3 ovarian
  TGI: > 100 µM
HOP-92 NSCLC
  TGI: 41.2 µM
MOLT-4 leukemia
  TGI: 35 µM
SK-MEL-2 melanoma
  TGI: 40.1 µM
RPMI-8226 leukemia
  TGI: 36.5 µM
NCI/ADR-RES ovarian
  TGI: > 100 µM
COLO 205 colon
  TGI: 33.3 µM
HL-60(TB) leukemia
  TGI: 31.3 µM
HOP-62 NSCLC
  TGI: > 100 µM
EKVX NSCLC
  TGI: 60.9 µM
MCF7 breast
  TGI: 42.5 µM
MDA-MB-435
  TGI: 35.6 µM
HCT-15 colon
  TGI: > 100 µM
UACC-257 melanoma
  TGI: 78.8 µM
UACC-62 melanoma
  TGI: > 100 µM
LOX IMVI melanoma
  TGI: 34.7 µM
T-47D breast
  TGI: 75.9 µM
NCI-H23 lung
  TGI: > 100 µM
BT-549 breast
  TGI: > 100 µM
OVCAR-8 ovarian
  TGI: 88.9 µM
NCI-H226 lung
  TGI: 63.3 µM
SF-295 CNS
  TGI: > 100 µM
NCI-H522 lung
  TGI: 56.4 µM
MDA-N
  TGI: 53.5 µM
TK-10 renal
  TGI: > 100 µM
